Experimental data published in PubChem BioAssay (NCI).
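Each compound was tested at five concentrations against cells in 96-well plates for 48 hours. GI50 is the concentration that inhibits growth by half. The concentration for full growth arrest is given as TGI.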

Key:
Test in all cases: growth of human tumour cells (NCI), 48 h
[1] = tested on: 786-0 renal
[2] = tested on: A498 renal
[3] = tested on: A549 NSCLC
[4] = tested on: ACHN renal
[5] = tested on: BT-549 breast
[6] = tested on: CAKI-1 renal
[7] = tested on: CCRF-CEM leukemia
[8] = tested on: COLO 205 colon
[9] = tested on: DU-145 prostate
[10] = tested on: EKVX NSCLC
[11] = tested on: HCC-2998 colon
[12] = tested on: HCT-116 colon
[13] = tested on: HCT-15 colon
[14] = tested on: HL-60(TB) leukemia
[15] = tested on: HOP-62 NSCLC
[16] = tested on: HOP-92 NSCLC
[17] = tested on: HS 578T breast
[18] = tested on: HT29 colon
[19] = tested on: IGROV1 ovarian
[20] = tested on: K-562 leukemia
[21] = tested on: KM12 colon
[22] = tested on: LOX IMVI melanoma
[23] = tested on: M14 melanoma
[24] = tested on: MALME-3M melanoma
[25] = tested on: MCF7 breast
[26] = tested on: MDA-MB-231 breast
[27] = tested on: MDA-MB-435
[28] = tested on: MOLT-4 leukemia
[29] = tested on: NCI-H226 lung
[30] = tested on: NCI-H23 lung
[31] = tested on: NCI-H460 lung
[32] = tested on: NCI-H522 lung
[33] = tested on: NCI/ADR-RES ovarian
[34] = tested on: OVCAR-3 ovarian
[35] = tested on: OVCAR-4 ovarian
[36] = tested on: OVCAR-5 ovarian
[37] = tested on: OVCAR-8 ovarian
[38] = tested on: PC-3 prostate
[39] = tested on: RPMI-8226 leukemia
[40] = tested on: RXF 393 renal
[41] = tested on: SF-268 CNS
[42] = tested on: SF-295 CNS
[43] = tested on: SF-539 CNS
[44] = tested on: SK-MEL-2 melanoma
[45] = tested on: SK-MEL-28 melanoma
[46] = tested on: SK-MEL-5 melanoma
[47] = tested on: SK-OV-3 ovarian
[48] = tested on: SN12C renal
[49] = tested on: SNB-19 CNS
[50] = tested on: SNB-75 CNS
[51] = tested on: SR leukemia
[52] = tested on: SW-620 colon
[53] = tested on: T-47D breast
[54] = tested on: TK-10 renal
[55] = tested on: U251 CNS
[56] = tested on: UACC-257 melanoma
[57] = tested on: UACC-62 melanoma
[58] = tested on: UO-31 renal

CCOC(=O)c1sc(NCC(=O)Nc2cccc([N+](=O)[O-])c2)c(C(=O)OCC)c1C
GI50 [1]: 254 nM
TGI [1]: 907 nM
GI50 [2]: 309 nM
TGI [2]: 1160 nM
GI50 [3]: 461 nM
TGI [3]: 3060 nM
GI50 [4]: 289 nM
TGI [4]: 797 nM
GI50 [5]: 258 nM
TGI [5]: 769 nM
GI50 [6]: 267 nM
TGI [6]: 810 nM
GI50 [7]: 288 nM
GI50 [8]: 287 nM
TGI [8]: 846 nM
GI50 [9]: 760 nM
TGI [9]: 6320 nM
GI50 [10]: 1650 nM
TGI [10]: 4530 nM
GI50 [11]: 1400 nM
TGI [11]: 3470 nM
GI50 [12]: 303 nM
TGI [12]: 1360 nM
GI50 [13]: 286 nM
TGI [13]: 1840 nM
GI50 [14]: 464 nM
GI50 [15]: 1020 nM
TGI [15]: 4130 nM
GI50 [16]: 221 nM
TGI [16]: 873 nM
GI50 [17]: 270 nM
TGI [17]: 1030 nM
GI50 [18]: 272 nM
TGI [18]: 821 nM
GI50 [19]: 238 nM
TGI [19]: 693 nM
GI50 [20]: 333 nM
TGI [20]: > 36700 nM
GI50 [21]: 539 nM
TGI [21]: 3970 nM
GI50 [22]: 172 nM
TGI [22]: 358 nM
GI50 [23]: 329 nM
TGI [23]: 1300 nM
GI50 [24]: 231 nM
TGI [24]: 598 nM
GI50 [25]: 274 nM
TGI [25]: 1030 nM
GI50 [26]: 1230 nM
TGI [26]: 3850 nM
GI50 [27]: 486 nM
TGI [27]: 1760 nM
GI50 [28]: 342 nM
TGI [28]: > 33200 nM
GI50 [29]: 230 nM
TGI [29]: 602 nM
GI50 [30]: 241 nM
TGI [30]: 665 nM
GI50 [31]: 313 nM
TGI [31]: 963 nM
GI50 [32]: 251 nM
TGI [32]: 757 nM
GI50 [33]: 319 nM
TGI [33]: 1580 nM
GI50 [34]: 376 nM
TGI [34]: 1750 nM
GI50 [35]: 897 nM
TGI [35]: 5180 nM
GI50 [36]: 283 nM
TGI [36]: 824 nM
GI50 [37]: 375 nM
GI50 [38]: 229 nM
TGI [38]: 598 nM
GI50 [39]: 366 nM
TGI [39]: 1750 nM
GI50 [40]: 175 nM
TGI [40]: 348 nM
GI50 [41]: 961 nM
TGI [41]: 3740 nM
GI50 [42]: 543 nM
TGI [42]: 3770 nM
GI50 [43]: 300 nM
TGI [43]: 880 nM
GI50 [44]: 1770 nM
TGI [44]: 4790 nM
GI50 [45]: 291 nM
TGI [45]: 883 nM
GI50 [46]: 346 nM
TGI [46]: 1230 nM
GI50 [47]: 307 nM
TGI [47]: 838 nM
GI50 [48]: 285 nM
TGI [48]: 930 nM
GI50 [49]: 496 nM
TGI [49]: 4740 nM
GI50 [50]: 790 nM
TGI [50]: 3440 nM
GI50 [51]: 354 nM
GI50 [52]: 325 nM
TGI [52]: 1900 nM
GI50 [53]: 1270 nM
TGI [53]: 3880 nM
GI50 [54]: 263 nM
TGI [54]: 1270 nM
GI50 [55]: 274 nM
TGI [55]: 1080 nM
GI50 [56]: 1060 nM
TGI [56]: 5240 nM
GI50 [57]: 173 nM
TGI [57]: 381 nM
GI50 [58]: 202 nM
TGI [58]: 522 nM
